In the test the test system is GL261-luc cells. The test is described as follows: GL261-luc intracranial malignant glioma mouse model: survival and bioluminescence. The format is in vivo, albino C57BL/6 mice. The note with it: TMZ (5×50 mg/kg), animals maintained on SD.

The values that follow come from patent US20140011749A1, “KETOGENIC DIET COMPOSITION FOR THE TREATMENT OF CHEMO THERAPY AND/OR RADIATION THERAPY PATIENTS” (priority 2011, published 2014).

Procedure: GL261-luc cells expressing luciferase were stereotactically implanted into the right frontal lobe of immune-competent albino C57BL/6 mice (NCI, Frederick, Md.). Following intracranial implantation, animals were fed standard rodent chow (SD) and were randomized to treatment groups on day 3 (SD vs KetoCal® with and without radiation or TMZ) based on bioluminescent signal (IVIS® Spectrum in vivo imaging system, Caliper Life Sciences, Hopkinton, Mass.). […] Mice were maintained on a 12 hour light/dark cycle and KetoCal® or SD was available ad libitum.

Compound `Cn1nnc2c(C(N)=O)ncn2c1=O` [TMZ, temozolomide] displayed a median survival of 28 days.
